This passage reports DC50 and Dmax results from patent US12539292B2, “BRM targeting compounds and associated methods of use” (Arvinas Operations, Inc., priority 2018, dated 2026).

In this test the target is T1, BRM (Homo sapiens, UniProt P51531).
T1 construct: In-Cell Western Screen of BRM Degradation in SW1573 Cells; endogenous in cells; host or cells: SW1573
Kind of test: In-cell Western screen of BRM degradation in SW1573 cells (Dmax and DC50). The conditions noted are these: BRM degradation, SW1573 cells; for DC50: read-out: DC50; for Dmax: read-out: Dmax (% degraded). It is filed as cell-based. Put shortly:
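Near-infrared imaging on a LI-COR Odyssey (800 and 680 nm channels) quantifies BRM remaining in fixed SW1573 cells. Cells are dosed for 18-20 h at 0.1% final DMSO, and degradation is expressed as Dmax and DC50.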

T1 sequence (P51531 whole entry): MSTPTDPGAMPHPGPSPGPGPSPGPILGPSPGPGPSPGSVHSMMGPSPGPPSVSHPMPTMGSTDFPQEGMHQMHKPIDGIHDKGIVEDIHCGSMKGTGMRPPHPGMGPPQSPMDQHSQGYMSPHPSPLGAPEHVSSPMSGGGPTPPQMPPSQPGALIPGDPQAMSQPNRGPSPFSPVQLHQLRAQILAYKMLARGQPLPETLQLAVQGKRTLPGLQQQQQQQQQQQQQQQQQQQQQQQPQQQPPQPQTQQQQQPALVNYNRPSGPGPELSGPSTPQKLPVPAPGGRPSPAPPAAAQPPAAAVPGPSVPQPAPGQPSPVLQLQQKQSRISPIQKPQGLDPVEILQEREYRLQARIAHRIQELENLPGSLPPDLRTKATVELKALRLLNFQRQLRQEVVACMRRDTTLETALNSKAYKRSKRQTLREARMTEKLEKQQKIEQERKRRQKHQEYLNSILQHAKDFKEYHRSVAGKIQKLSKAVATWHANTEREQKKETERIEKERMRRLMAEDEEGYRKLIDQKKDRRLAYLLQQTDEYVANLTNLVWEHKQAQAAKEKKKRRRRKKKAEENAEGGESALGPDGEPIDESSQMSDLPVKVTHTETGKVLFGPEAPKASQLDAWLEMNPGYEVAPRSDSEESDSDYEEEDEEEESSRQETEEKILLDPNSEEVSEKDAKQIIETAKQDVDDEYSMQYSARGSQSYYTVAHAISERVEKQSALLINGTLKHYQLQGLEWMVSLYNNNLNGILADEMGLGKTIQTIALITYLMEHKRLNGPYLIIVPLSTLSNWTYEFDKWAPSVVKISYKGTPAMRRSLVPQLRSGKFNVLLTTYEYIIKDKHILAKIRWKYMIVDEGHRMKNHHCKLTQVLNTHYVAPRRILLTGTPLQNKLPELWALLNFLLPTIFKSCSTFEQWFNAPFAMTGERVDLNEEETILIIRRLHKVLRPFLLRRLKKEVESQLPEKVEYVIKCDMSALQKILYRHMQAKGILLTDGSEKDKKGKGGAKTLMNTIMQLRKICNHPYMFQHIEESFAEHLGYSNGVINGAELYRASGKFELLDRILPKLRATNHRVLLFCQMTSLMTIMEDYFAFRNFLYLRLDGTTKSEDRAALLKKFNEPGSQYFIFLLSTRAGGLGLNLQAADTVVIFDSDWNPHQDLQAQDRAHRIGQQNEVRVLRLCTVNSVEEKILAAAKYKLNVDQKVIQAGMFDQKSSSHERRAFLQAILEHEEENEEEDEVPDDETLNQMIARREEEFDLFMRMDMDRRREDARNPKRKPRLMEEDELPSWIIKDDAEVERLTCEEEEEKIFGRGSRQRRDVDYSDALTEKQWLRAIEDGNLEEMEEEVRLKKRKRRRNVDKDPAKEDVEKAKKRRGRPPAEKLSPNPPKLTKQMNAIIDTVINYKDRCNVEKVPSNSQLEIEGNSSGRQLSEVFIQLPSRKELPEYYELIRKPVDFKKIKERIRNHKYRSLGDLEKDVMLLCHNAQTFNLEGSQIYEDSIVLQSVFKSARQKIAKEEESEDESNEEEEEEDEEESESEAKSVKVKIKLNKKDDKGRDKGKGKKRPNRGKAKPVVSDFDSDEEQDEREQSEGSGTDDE

What is called DC50 is the concentration at which degradation of the target reaches its halfway point. Usually Dmax stands for the largest share of the target that was removed. With `CC(C)[C@H](C(=O)N1C[C@H](O)C[C@H]1C(=O)N[C@@H](C)c1ccc(-c2scnc2N)cc1)c1cc(N2CCC(CN3CCC(O[C@H]4C[C@H](Oc5cc(N6C7CCC6CN(c6cc(-c8ccccc8O)nnc6N)C7)ccn5)C4)CC3)CC2)no1` [compound 629, (2S,4R)-1-((2S)-2-(3-(4-((4-((1r,3r)-3-((4-(3-(3-amino-6-(2-hydroxyphenyl)pyridazin-4-yl)-3,8-diazabicyclo[3.2.1]octan-8-yl)pyridin-2-yl)oxy)cyclobutoxy)piperidin-1-yl)methyl)piperidin-1-yl)isoxazol-5-yl)-3-methylbutanoyl)-N-((S)-1-(4-(4-aminothiazol-5-yl)phenyl)ethyl)-4-hydroxypyrrolidine-2-carboxamide], the DC50 lay in the range of 2.5 to 10 nM and the Dmax was above 75%.
The like results for `CC(C)[C@@H](C(=O)N1C[C@H](O)C[C@H]1C(=O)N[C@@H](C)c1ccc(-c2scnc2N)cc1)c1cc(N2CCC(CN3CCC(O[C@H]4C[C@H](Oc5cc(N6C7CCC6CN(c6cc(-c8ccccc8O)nnc6N)C7)ccn5)C4)CC3)CC2)no1` [compound 630, (2S,4R)-1-((2R)-2-(3-(4-((4-((1r,3r)-3-((4-(3-(3-amino-6-(2-hydroxyphenyl)pyridazin-4-yl)-3,8-diazabicyclo[3.2.1]octan-8-yl)pyridin-2-yl)oxy)cyclobutoxy)piperidin-1-yl)methyl)piperidin-1-yl)isoxazol-5-yl)-3-methylbutanoyl)-N-((S)-1-(4-(4-aminothiazol-5-yl)phenyl)ethyl)-4-hydroxypyrrolidine-2-carboxamide] were, in that order, below 2.5 nM and above 75%.
The like results for `CC(C)[C@H](C(=O)N1C[C@H](O)C[C@H]1C(=O)N[C@@H](C)c1ccc(-c2ccnn2C)cc1)c1cc(N2CCC(CN3CCC(O[C@H]4C[C@H](Oc5cc(N6C7CCC6CN(c6cc(-c8ccccc8O)nnc6N)C7)ccn5)C4)CC3)CC2)no1` [compound 631, (2S,4R)-1-((2S)-2-(3-(4-((4-((1r,3r)-3-((4-(3-(3-amino-6-(2-hydroxyphenyl)pyridazin-4-yl)-3,8-diazabicyclo[3.2.1]octan-8-yl)pyridin-2-yl)oxy)cyclobutoxy)piperidin-1-yl)methyl)piperidin-1-yl)isoxazol-5-yl)-3-methylbutanoyl)-4-hydroxy-N-((S)-1-(4-(1-methyl-1H-pyrazol-5-yl)phenyl)ethyl)pyrrolidine-2-carboxamide] were, in that order, below 2.5 nM and above 75%.
For `Cc1ncsc1-c1ccc([C@H](C)NC(=O)[C@@H]2C[C@@H](O)CN2C(=O)[C@@H](c2cc(OCCC3CCN(C[C@H]4C[C@H](C#CC(C)n5cc(-c6cc(-c7ccccc7O)nnc6N)cn5)C4)CC3)no2)C(C)C)cc1` (stereo partly drawn) [compound 632, (2S,4R)-1-((2S)-2-(3-(2-(1-(((1r,3S)-3-(3-(4-(3-amino-6-(2-hydroxyphenyl)pyridazin-4-yl)-1H-pyrazol-1-yl)but-1-yn-1-yl)cyclobutyl)methyl)piperidin-4-yl)ethoxy)isoxazol-5-yl)-3-methylbutanoyl)-4-hydroxy-N-((S)-1-(4-(4-methylthiazol-5-yl)phenyl)ethyl)pyrrolidine-2-carboxamide], in that order: below 2.5 nM and above 75%.
For the compound `Cc1ncsc1-c1ccc([C@H](C)NC(=O)[C@@H]2C[C@@H](O)CN2C(=O)[C@H](c2cc(OCCC3CCN(C[C@H]4C[C@H](C#CC(C)n5cc(-c6cc(-c7ccccc7O)nnc6N)cn5)C4)CC3)no2)C(C)C)cc1` (stereo partly drawn) [compound 633, (2S,4R)-1-((2R)-2-(3-(2-(1-(((1r,3R)-3-(3-(4-(3-amino-6-(2-hydroxyphenyl)pyridazin-4-yl)-1H-pyrazol-1-yl)but-1-yn-1-yl)cyclobutyl)methyl)piperidin-4-yl)ethoxy)isoxazol-5-yl)-3-methylbutanoyl)-4-hydroxy-N-((S)-1-(4-(4-methylthiazol-5-yl)phenyl)ethyl)pyrrolidine-2-carboxamide], the DC50 is below 2.5 nM and the Dmax was above 75%.
As to `CC(C)C(C(=O)N1C[C@H](O)C[C@H]1C(=O)N[C@@H](C)c1ccc(C#N)cc1)c1cc(N2CCC(CN3CCC(O[C@H]4C[C@H](Oc5cc(N6C7CCC6CN(c6cc(-c8ccccc8O)nnc6N)C7)ccn5)C4)CC3)CC2)no1` (stereo partly drawn) [compound 639, (2S,4R)-1-((2S)-2-(3-(4-((4-((1r,3r)-3-((4-(3-(3-amino-6-(2-hydroxyphenyl)pyridazin-4-yl)-3,8-diazabicyclo[3.2.1]octan-8-yl)pyridin-2-yl)oxy)cyclobutoxy)piperidin-1-yl)methyl)piperidin-1-yl)isoxazol-5-yl)-3-methylbutanoyl)-N-((S)-1-(4-cyanophenyl)ethyl)-4-hydroxypyrrolidine-2-carboxamide], the DC50 was above 30 nM.
Take `CC(C)[C@@H](C(=O)N1C[C@H](O)C[C@H]1C(=O)N[C@@H](C)c1ccc(C#N)cc1)c1cc(N2CCC(CN3CCC(O[C@H]4C[C@H](Oc5cc(N6C7CCC6CN(c6cc(-c8ccccc8O)nnc6N)C7)ccn5)C4)CC3)CC2)no1` [compound 640, (2S,4R)-1-((2R)-2-(3-(4-((4-((1r,3r)-3-((4-(3-(3-amino-6-(2-hydroxyphenyl)pyridazin-4-yl)-3,8-diazabicyclo[3.2.1]octan-8-yl)pyridin-2-yl)oxy)cyclobutoxy)piperidin-1-yl)methyl)piperidin-1-yl)isoxazol-5-yl)-3-methylbutanoyl)-N-((S)-1-(4-cyanophenyl)ethyl)-4-hydroxypyrrolidine-2-carboxamide]: the DC50 was below 2.5 nM and the Dmax was above 75%.
Regarding `Cc1ncsc1-c1ccc([C@H](C)NC(=O)[C@@H]2C[C@@H](O)CN2C(=O)[C@H](c2cc(N3CCC(O)(CN4CCC(O[C@H]5C[C@H](Oc6cc(N7C8CCC7CN(c7cc(-c9ccccc9O)nnc7N)C8)ccn6)C5)CC4)CC3)no2)C(C)C)cc1` [compound 641, (2S,4R)-1-((2S)-2-(3-(4-((4-((1r,3r)-3-((4-(3-(3-amino-6-(2-hydroxyphenyl)pyridazin-4-yl)-3,8-diazabicyclo[3.2.1]octan-8-yl)pyridin-2-yl)oxy)cyclobutoxy)piperidin-1-yl)methyl)-4-hydroxypiperidin-1-yl)isoxazol-5-yl)-3-methylbutanoyl)-4-hydroxy-N-((S)-1-(4-(4-methylthiazol-5-yl)phenyl)ethyl)pyrrolidine-2-carboxamide], the DC50 is above 30 nM.
For the compound `Cc1ncsc1-c1ccc([C@H](C)NC(=O)[C@@H]2C[C@@H](O)CN2C(=O)[C@@H](c2cc(N3CCC(CN4CCC(O[C@H]5C[C@H](CN6CCC(C(C)n7cc(-c8cc(-c9ccccc9O)nnc8N)cn7)CC6)C5)CC4)CC3)no2)C(C)C)cc1` (stereo partly drawn) [compound 642, (2S,4R)-1-((2R)-2-(3-(4-((4-((1r,3r)-3-((4-(1-(4-(3-amino-6-(2-hydroxyphenyl)pyridazin-4-yl)-1H-pyrazol-1-yl)ethyl)piperidin-1-yl)methyl)cyclobutoxy)piperidin-1-yl)methyl)piperidin-1-yl)isoxazol-5-yl)-3-methylbutanoyl)-4-hydroxy-N-((S)-1-(4-(4-methylthiazol-5-yl)phenyl)ethyl)pyrrolidine-2-carboxamide], the DC50 was below 2.5 nM and the Dmax was above 75%.
For `Cc1ncsc1-c1ccc([C@H](C)NC(=O)[C@@H]2C[C@@H](O)CN2C(=O)[C@H](c2cc(N3CCC(C(C)N4CCC(O[C@H]5C[C@H](Oc6cc(N7C8CCC7CN(c7cc(-c9ccccc9O)nnc7N)C8)ccn6)C5)CC4)CC3)no2)C(C)C)cc1` (stereo partly drawn) [compound 643, (2S,4R)-1-((2S)-2-(3-(4-(1-(4-((1r,3r)-3-((4-(3-(3-amino-6-(2-hydroxyphenyl)pyridazin-4-yl)-3,8-diazabicyclo[3.2.1]octan-8-yl)pyridin-2-yl)oxy)cyclobutoxy)piperidin-1-yl)ethyl)piperidin-1-yl)isoxazol-5-yl)-3-methylbutanoyl)-4-hydroxy-N-((S)-1-(4-(4-methylthiazol-5-yl)phenyl)ethyl)pyrrolidine-2-carboxamide], in that order: below 2.5 nM and above 75%.
Consider `Cc1ncsc1-c1ccc([C@H](C)NC(=O)[C@@H]2C[C@@H](O)CN2C(=O)[C@@H](c2cc(N3CCC(C(C)N4CCC(O[C@H]5C[C@H](Oc6cc(N7C8CCC7CN(c7cc(-c9ccccc9O)nnc7N)C8)ccn6)C5)CC4)CC3)no2)C(C)C)cc1` (stereo partly drawn) [compound 644, (2S,4R)-1-((2R)-2-(3-(4-(1-(4-((1r,3r)-3-((4-(3-(3-amino-6-(2-hydroxyphenyl)pyridazin-4-yl)-3,8-diazabicyclo[3.2.1]octan-8-yl)pyridin-2-yl)oxy)cyclobutoxy)piperidin-1-yl)ethyl)piperidin-1-yl)isoxazol-5-yl)-3-methylbutanoyl)-4-hydroxy-N-((S)-1-(4-(4-methylthiazol-5-yl)phenyl)ethyl)pyrrolidine-2-carboxamide], for which the DC50 is below 2.5 nM and the Dmax was above 75%.
For `Cc1ncsc1-c1ccc([C@H](C)NC(=O)[C@@H]2C[C@@H](O)CN2C(=O)[C@@H](c2cc(N3CCC(O)(CN4CCC(O[C@H]5C[C@H](Oc6cc(N7C8CCC7CN(c7cc(-c9ccccc9O)nnc7N)C8)ccn6)C5)CC4)CC3)no2)C(C)C)cc1` [compound 645, (2S,4R)-1-((2R)-2-(3-(4-((4-((1r,3r)-3-((4-(3-(3-amino-6-(2-hydroxyphenyl)pyridazin-4-yl)-3,8-diazabicyclo[3.2.1]octan-8-yl)pyridin-2-yl)oxy)cyclobutoxy)piperidin-1-yl)methyl)-4-hydroxypiperidin-1-yl)isoxazol-5-yl)-3-methylbutanoyl)-4-hydroxy-N-((S)-1-(4-(4-methylthiazol-5-yl)phenyl)ethyl)pyrrolidine-2-carboxamide], the DC50 was below 2.5 nM and the Dmax was above 75%.
